One may read the IC50 as the midpoint of a concentration-inhibition curve.

This passage reports IC50 results from patent US20230295119A1, “SUBSTITUTED PYRIDINES FOR THE TREATMENT OF INFLAMMATORY DISEASES” (GOSSAMER BIO SERVICES, INC., priority 2020, published 2023).

One test concerns the target human JAK1 (Homo sapiens (Human), UniProt P23458). As to the kind of experiment: JAK1 TR-FRET kinase assay. The format is biochemical. To be noted: TR-FRET, JAK1 2.5 nM. In general terms: Time-resolved FRET reads energy transfer from a long-lived donor to a nearby acceptor.
The target in a further test is human JAK2 (Homo sapiens (Human), UniProt O60674). As to the kind of experiment: JAK2 TR-FRET kinase assay. The class given is biochemical. To be noted: JAK2 0.025 nM.
human JAK2, sequence (O60674 whole entry, the tested form may be a part): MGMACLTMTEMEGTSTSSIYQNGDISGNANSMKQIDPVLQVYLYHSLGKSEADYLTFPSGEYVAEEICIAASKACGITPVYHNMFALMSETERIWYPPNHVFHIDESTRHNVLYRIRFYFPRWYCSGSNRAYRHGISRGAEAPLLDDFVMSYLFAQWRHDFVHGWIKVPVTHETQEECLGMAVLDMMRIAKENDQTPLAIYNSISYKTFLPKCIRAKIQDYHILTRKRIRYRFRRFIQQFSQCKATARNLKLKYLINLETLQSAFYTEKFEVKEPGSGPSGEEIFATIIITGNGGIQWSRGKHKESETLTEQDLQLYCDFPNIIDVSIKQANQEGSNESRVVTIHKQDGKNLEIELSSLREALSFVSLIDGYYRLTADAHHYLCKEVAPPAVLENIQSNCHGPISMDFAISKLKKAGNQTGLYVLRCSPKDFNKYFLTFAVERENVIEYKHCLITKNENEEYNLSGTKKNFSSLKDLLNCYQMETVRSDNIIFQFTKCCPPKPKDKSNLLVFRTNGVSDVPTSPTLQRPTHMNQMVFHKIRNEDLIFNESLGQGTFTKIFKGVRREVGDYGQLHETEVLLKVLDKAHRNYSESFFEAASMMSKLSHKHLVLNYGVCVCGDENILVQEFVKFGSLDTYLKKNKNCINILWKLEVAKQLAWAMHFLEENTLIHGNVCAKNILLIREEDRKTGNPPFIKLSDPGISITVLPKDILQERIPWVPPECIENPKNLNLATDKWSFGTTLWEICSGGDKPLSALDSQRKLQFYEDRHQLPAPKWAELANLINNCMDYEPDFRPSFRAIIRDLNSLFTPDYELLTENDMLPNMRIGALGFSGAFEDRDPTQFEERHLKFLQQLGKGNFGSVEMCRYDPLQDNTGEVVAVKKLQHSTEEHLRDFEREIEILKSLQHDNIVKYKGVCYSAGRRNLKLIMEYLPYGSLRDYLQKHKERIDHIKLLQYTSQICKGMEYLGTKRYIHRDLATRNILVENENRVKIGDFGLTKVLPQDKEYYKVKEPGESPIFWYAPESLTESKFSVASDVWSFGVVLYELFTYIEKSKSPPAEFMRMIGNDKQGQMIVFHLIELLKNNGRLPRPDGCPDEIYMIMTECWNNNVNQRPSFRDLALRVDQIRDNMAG
The target in a further test is TYK2 JH2 domain (Homo sapiens (Human), UniProt P29597). The experiment in a line: TYK2 JH2 NanoBRET assay. The format is binding. To be noted: Table 20, read-out: TYK2 IC50. In a few lines:
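HEK293T cells transiently expressing NanoLuc-TYK2 JH2 fusion, incubated 2 h with compound and NanoBRET K10 tracer (0.5 µM final). Target engagement read as acceptor/donor BRET ratio after Nano-Glo substrate plus extracellular NanoLuc inhibitor.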
Background: BRET reads energy transfer from a luciferase to a nearby fluorophore.

For another test, the target named is human JAK3 (Homo sapiens (Human), UniProt P52333). The experiment in a line: JAK3 TR-FRET kinase assay. The class given is biochemical. Particulars: JAK3 0.0125 nM.
human JAK3, sequence (P52333 whole entry): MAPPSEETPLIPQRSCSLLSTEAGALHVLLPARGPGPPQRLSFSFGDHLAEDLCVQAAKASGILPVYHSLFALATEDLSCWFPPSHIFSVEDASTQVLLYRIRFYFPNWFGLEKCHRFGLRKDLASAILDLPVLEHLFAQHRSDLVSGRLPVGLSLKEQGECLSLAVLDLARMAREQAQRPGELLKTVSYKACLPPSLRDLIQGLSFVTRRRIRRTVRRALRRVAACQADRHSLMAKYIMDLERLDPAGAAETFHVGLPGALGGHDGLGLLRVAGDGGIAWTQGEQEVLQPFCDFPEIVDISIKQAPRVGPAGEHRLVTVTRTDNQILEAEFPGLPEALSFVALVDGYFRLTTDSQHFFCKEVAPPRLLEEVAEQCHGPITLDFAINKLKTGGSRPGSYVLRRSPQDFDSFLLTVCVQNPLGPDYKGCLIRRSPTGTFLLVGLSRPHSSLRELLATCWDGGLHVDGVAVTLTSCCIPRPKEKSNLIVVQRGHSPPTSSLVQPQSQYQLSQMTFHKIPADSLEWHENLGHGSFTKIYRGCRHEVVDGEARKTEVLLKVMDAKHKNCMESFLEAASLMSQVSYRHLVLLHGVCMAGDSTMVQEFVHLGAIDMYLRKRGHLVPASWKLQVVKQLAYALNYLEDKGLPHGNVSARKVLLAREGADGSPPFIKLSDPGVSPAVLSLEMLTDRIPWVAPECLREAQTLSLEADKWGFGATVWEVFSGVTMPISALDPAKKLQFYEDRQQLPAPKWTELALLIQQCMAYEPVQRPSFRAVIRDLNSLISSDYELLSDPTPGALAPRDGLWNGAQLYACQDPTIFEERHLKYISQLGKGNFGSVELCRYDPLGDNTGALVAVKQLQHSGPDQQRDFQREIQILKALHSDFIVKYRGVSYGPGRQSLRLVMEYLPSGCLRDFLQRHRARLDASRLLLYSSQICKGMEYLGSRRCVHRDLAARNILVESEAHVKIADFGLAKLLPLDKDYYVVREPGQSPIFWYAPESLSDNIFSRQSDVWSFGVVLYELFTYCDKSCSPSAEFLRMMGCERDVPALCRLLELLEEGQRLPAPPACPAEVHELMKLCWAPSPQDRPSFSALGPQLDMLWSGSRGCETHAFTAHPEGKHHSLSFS

human JAK1, sequence (P23458 whole entry): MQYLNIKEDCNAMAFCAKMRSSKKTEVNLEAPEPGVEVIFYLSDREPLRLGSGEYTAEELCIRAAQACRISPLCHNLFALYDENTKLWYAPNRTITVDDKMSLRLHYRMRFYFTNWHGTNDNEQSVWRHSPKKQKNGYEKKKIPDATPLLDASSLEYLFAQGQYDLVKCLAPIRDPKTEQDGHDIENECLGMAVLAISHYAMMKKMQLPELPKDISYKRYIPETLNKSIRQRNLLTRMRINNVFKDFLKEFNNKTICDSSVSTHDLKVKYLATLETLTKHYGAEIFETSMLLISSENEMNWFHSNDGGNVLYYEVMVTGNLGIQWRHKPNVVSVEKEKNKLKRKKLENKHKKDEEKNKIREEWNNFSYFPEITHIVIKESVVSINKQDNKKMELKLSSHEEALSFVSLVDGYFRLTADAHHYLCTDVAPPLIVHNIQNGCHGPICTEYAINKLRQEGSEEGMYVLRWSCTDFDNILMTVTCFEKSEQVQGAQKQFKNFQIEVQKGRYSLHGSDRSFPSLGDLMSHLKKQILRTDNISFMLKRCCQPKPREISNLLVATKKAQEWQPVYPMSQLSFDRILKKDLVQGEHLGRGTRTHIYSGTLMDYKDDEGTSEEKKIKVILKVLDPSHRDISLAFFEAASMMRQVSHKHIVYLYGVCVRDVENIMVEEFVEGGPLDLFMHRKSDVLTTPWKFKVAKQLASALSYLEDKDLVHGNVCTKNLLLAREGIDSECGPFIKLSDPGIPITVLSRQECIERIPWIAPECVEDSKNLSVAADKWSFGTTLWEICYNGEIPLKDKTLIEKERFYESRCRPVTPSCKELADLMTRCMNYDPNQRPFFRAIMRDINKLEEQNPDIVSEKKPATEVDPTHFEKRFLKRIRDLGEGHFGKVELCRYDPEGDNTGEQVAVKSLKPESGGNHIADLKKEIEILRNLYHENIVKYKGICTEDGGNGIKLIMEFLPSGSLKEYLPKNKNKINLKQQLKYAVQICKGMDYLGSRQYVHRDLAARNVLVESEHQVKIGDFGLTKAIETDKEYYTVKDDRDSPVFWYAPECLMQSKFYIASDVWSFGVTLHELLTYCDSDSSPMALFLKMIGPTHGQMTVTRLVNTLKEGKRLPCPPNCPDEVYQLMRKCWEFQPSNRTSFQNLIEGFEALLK
TYK2 JH2 domain, sequence (P29597 589-875): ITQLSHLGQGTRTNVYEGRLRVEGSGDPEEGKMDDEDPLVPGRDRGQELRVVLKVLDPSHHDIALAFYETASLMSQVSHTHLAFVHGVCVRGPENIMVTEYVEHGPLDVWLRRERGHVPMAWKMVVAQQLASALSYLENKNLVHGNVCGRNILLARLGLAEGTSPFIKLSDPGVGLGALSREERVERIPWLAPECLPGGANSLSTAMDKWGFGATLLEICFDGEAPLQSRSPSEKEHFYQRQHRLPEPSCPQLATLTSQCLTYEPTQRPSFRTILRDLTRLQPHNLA

Turning to `CCC(=O)c1cnc(NC(=O)C2CC2)cc1Nc1cc(C#N)cc(-c2ncn(C)n2)c1OC` [Compound 25B], the IC50 at human JAK1, on human JAK2, on TYK2 JH2 domain and against human JAK3 was at least 500 nM throughout.

`CCC(=O)c1cnc(NC(=O)C2CC2)cc1Nc1cc(CN(C)C)cc(-c2ncn(C)n2)c1OC` [Compound 25C]: the concentration for half-maximal inhibition (IC50) against human JAK1, against human JAK2, on TYK2 JH2 domain and on human JAK3 was at least 500 nM each time.

Regarding `CCC(=O)c1cnc(NC(=O)C2CC2)cc1Nc1cc(CO)cc(-c2ncn(C)n2)c1OC` [Compound 25D], the IC50 against human JAK1 was at least 500 nM; against human JAK2, at least 500 nM; at TYK2 JH2 domain, 50 to 500 nM; on human JAK3, at least 500 nM.

For the compound `CCC(=O)c1cnc(NC(=O)C2CC2)cc1Nc1cc(COC)cc(-c2ncn(C)n2)c1OC` [Compound 25E], the IC50 at human JAK1 is at least 500 nM; on human JAK2, at least 500 nM; at TYK2 JH2 domain, 50 to 500 nM; against human JAK3 it was at least 500 nM.

Take `CCC(=O)c1cnc(NC(=O)C2CC2)cc1Nc1cc(F)cc(-c2ncn(CCO)n2)c1OC` [Compound 25F]: the IC50 at human JAK1 is at least 500 nM; on human JAK2 it was at least 500 nM; on TYK2 JH2 domain, 50 to 500 nM; at human JAK3 it was at least 500 nM.

With `CCC(=O)c1cnc(NC2=NN(C(=O)C3CC3)CC2)cc1Nc1cccc(-c2ncn(C)n2)c1OC` [Compound 26A, 1-(6-((1-(cyclopropanecarbonyl)-4,5-dihydro-1H-pyrazol-3-yl)amino)-4-((2-methoxy-3-(1-methyl-1H-1,2,4-triazol-3-yl)phenyl)amino)pyridin-3-yl)propan-1-one], the IC50 is at least 500 nM against human JAK1, at least 500 nM at human JAK2, 5 to 50 nM on TYK2 JH2 domain and at least 500 nM on human JAK3.

In the case of `COc1c(Nc2cc(Nc3ccc(CS(C)(=O)=O)cn3)ncc2C(=O)C2CC2)cccc1-c1ncn(C)n1` [Compound 130], the IC50 against human JAK1 was at least 500 nM; against human JAK2, at least 500 nM; at TYK2 JH2 domain, below 5 nM; against human JAK3 it was at least 500 nM.

For the compound `CCC(=O)c1cnc(Nc2ccnc(OCCO)n2)cc1Nc1cccc(-c2ncn(C)n2)c1OC` [Compound 180], the IC50 is at least 500 nM against human JAK1, at least 500 nM against human JAK2, below 5 nM on TYK2 JH2 domain and at least 500 nM on human JAK3.

In the case of `CCC(=O)c1cnc(Nc2ccn([C@H]3C[C@H](C#N)C3)n2)cc1Nc1cccc(-c2ncn(C)n2)c1OC` [Compound 210], the IC50 was at least 500 nM on human JAK1, at least 500 nM at human JAK2, 5 to 50 nM on TYK2 JH2 domain and at least 500 nM at human JAK3.

Consider `CCC(=O)c1cnc(Nc2cnc(O[C@H]3CN[C@@H](C(F)F)C3)cn2)cc1Nc1cccc(-c2ncn(C)n2)c1OC` [Compound 18000], for which the IC50 against human JAK1 was at least 500 nM; at human JAK2, at least 500 nM; on TYK2 JH2 domain it was 5 to 50 nM; on human JAK3, at least 500 nM.
